Assay type in all cases: physicochemical
Data set [1] in a line: Bulk density according to USP 24, method I. Particulars: trihydrate. The source says:
Preferably, the crystalline powder according to the invention has a bulk density higher than 0.46 g/ml, preferably higher than 0.5 g/ml, more preferably higher than 0.55 g/ml. This further improves the flow properties. Moreover, an increased bulk density is advantageous as crystalline powder may be fed into a certain volume, for instance a capsule. There is no specific upper limit for the bulk density. The bulk density may be less than 0.8 g/ml, for instance less than 0.7 g/ml. The bulk density is preferably determined according to USP 24, method I, (page 1913).
The bulk density was determined according to USP 24, method I, (page 1913).

Data set [2] is described as follows: Particle size distribution (d10, d50) by laser diffraction, Malvern particle sizer 2600 C. Particulars: dry powder, f=300 mm, trihydrate. The text has this: The d10 and d50 are known ways for indicating a particle size distribution, d50 referring to the value for the particle size such that 50 vol. % of the particles has a particle size smaller than said value. The d50 is also referred to as average volume-based grain size. Likewise, d10 refers to the value for the particle size such that 10 vol. % of the particles has a particle size smaller than said value. A preferred way for determining d10 and d50 is laser diffraction, preferably using Malvern equipment. A suitable apparatus for determining d10 and d50 is a Malvern particle sizer 2600 C obtainable from Malvern Instruments Ltd., Malvern UK, for instance using an objective of f=300 mm and a beam length of 14.30 mm. A polydisperse analysis model may advantageously be used.
The particle size distribution (including d10 and d50) of samples from the mixer was determined using a Malvern particle sizer 2600 C with objective f=300 mm, malvern sample measurement unit PS1 and a Malvern dry powder feeder PS 64. The beam length was 14.30 mm. A polydisperse analysis model was used.

The nature of data set [3]: Tapped density according to USP 24, method II. To be noted: trihydrate; for Tap. dens. (dt): USP 24, method II; for db*(1/db − 1/dt)*100%: compressibility index from bulk and tapped density.
Data set [4] can be described thus: Dissolution test of capsules, USP 27 amoxicillin capsules, apparatus 1. To be noted: 500 mg (anhydrous basis) in gelatine capsule size 0, 900 ml water, 37° C., 100 rpm. The method, then:
In one aspect of the invention, the crystalline powder according to the invention has a high dissolution rate. Preferably, the crystalline powder according to the invention has a T85% of less than 55 minutes, preferably less than 50 minutes, preferably less than 40 minutes, preferably less than 30 minutes, preferably less than 25 minutes, preferably less than 20 minutes. T85% may for instance be above 5 minutes. […] The determination of T85% is preferably carried out under conditions as defined in USP 27, chapter “amoxicillin capsules”, involving the use of apparatus 1 and applying a stirring rate of 100 rpm (USP 27, paragraph 711). Preferably, samples are taken at regular intervals, e.g. each 5 minutes, to determine the quantity of dissolved amoxicillin by UV absorption.
No auxiliaries were added. Dissolution tests were applied using apparatus 1 under the conditions as described in USP 27 under paragraph “amoxicillin capsules”, including a stirring rate of 100 rpm and a temperature of 37° C. Six beakers each containing 900 ml of water were used. Samples were taken each 5 minutes, and the quantity of dissolved amoxicillin were determined employing UV absorption at the wavelength of maximum absorbance at 272 nm. • 84 wt. % of the amoxicillin was dissolved in 15 minutes. • 90 wt. % of the amoxicillin was dissolved in 20 minutes.

The nature of another data set: Flow through Klein cup. Particulars: Klein cup 8 mm; overheads fraction after air jet sieving 75 μm. How it is done:
The powder of example V was subjected to air jet sieving (200 LS-N air jet sieve manufactured by Hosakawa Alpine). Sieving was carried out using a 75 μm screen during 10 minutes. A few agglomerates formed during said sieving were removed from the overheads fraction (not passed through the sieve) tusing a vibrating sieve (425 μm), after which tapped density, bulk density, d50, d10 of the resulting crystals of the overheads fraction was determined.

For `CC1(C)S[C@@H]2[C@H](NC(=O)[C@H](N)c3ccc(O)cc3)C(=O)N2[C@H]1C(=O)O.O.O.O` [Ex. III, amoxicillin trihydrate], the “Bulk dens. (db)” value in data set [1] was found to be 0.56 g/mL. In data set [2], this compound came in with a d10 of 9.9 μm and a d50 of 47.8 μm. Besides, in data set [3], the “Tap. dens. (dt)” value was 0.81 g/mL and the “db*(1/db − 1/dt)*100%” value came out at 31%.
On to `CC1(C)S[C@@H]2[C@H](NC(=O)[C@H](N)c3ccc(O)cc3)C(=O)N2[C@H]1C(=O)O.O.O.O` [Ex. I, amoxicillin trihydrate], for which the “Bulk dens. (db)” value in data set [1] was 0.51 g/mL. In data set [3], the “Tap. dens. (dt)” value worked out at 0.73 g/mL and the “db*(1/db − 1/dt)*100%” value was 30%.
On to `CC1(C)S[C@@H]2[C@H](NC(=O)[C@H](N)c3ccc(O)cc3)C(=O)N2[C@H]1C(=O)O.O.O.O` [Ex. V, amoxicillin trihydrate], for which the “Bulk dens. (db)” value in data set [1] amounted to 0.58 g/mL. In data set [2], the d10 is recorded as 19 μm and the d50 was 61 μm. Besides, in data set [3], the “Tap. dens. (dt)” value was found to be 0.79 g/mL and the “db*(1/db − 1/dt)*100%” value came out at 26%.
The corresponding values for `CC1(C)S[C@@H]2[C@H](NC(=O)[C@H](N)c3ccc(O)cc3)C(=O)N2[C@H]1C(=O)O.O.O.O` [Comp. A, amoxicillin trihydrate, reference compound] are 0.26 g/mL, 4.0 μm, 17 μm, 0.55 g/mL and 53%.
Consider `CC1(C)S[C@@H]2[C@H](NC(=O)[C@H](N)c3ccc(O)cc3)C(=O)N2[C@H]1C(=O)O.O.O.O` [Ref. B, amoxicillin trihydrate, reference compound], for which the “Bulk dens. (db)” value in data set [1] was 0.26 g/mL. Moreover, in data set [3], the “Tap. dens. (dt)” value was determined as 0.47 g/mL and the “db*(1/db − 1/dt)*100%” value turned out to be 45%.
For `CC1(C)S[C@@H]2[C@H](NC(=O)[C@H](N)c3ccc(O)cc3)C(=O)N2[C@H]1C(=O)O.O.O.O` [Ex. IV, amoxicillin trihydrate], in data set [1], the “Bulk dens. (db)” value stood at 0.54 g/mL. In data set [4] (in 15 minutes), this compound yielded an amoxicillin dissolved of 84 wt. %. The same compound gave an amoxicillin dissolved in data set [4] (in 20 minutes) of 90 wt. %. Also, in data set [2], the d10 was found to be 7.0 μm and the d50 is reported as 37.0 μm. Besides, in data set [3], the “Tap. dens. (dt)” value turned out to be 0.81 g/mL and the “db*(1/db − 1/dt)*100%” value is 33%.
For the compound `CC1(C)S[C@@H]2[C@H](NC(=O)[C@H](N)c3ccc(O)cc3)C(=O)N2[C@H]1C(=O)O.O.O.O` [Ex. II, amoxicillin trihydrate], the “Bulk dens. (db)” value in data set [1] came to 0.56 g/mL. In data set [2], this compound came in with a d10 of 8.8 μm and a d50 of 42.8 μm. For the same compound, in data set [3], the “Tap. dens. (dt)” value turned out to be 0.78 g/mL and the “db*(1/db − 1/dt)*100%” value came to 28%.
Consider `CC1(C)S[C@@H]2[C@H](NC(=O)[C@H](N)c3ccc(O)cc3)C(=O)N2[C@H]1C(=O)O.O.O.O` [Ex. VI, amoxicillin trihydrate], for which, in data set [1], the “Bulk dens. (db)” value turned out to be 0.59 g/mL. Besides, in data set [2], the d10 is reported as 36 μm and the d50 was found to be 86 μm. The “flow through Klein cup” value in the data set “Flow through Klein cup” is “flows through Klein cup 8 mm”. In addition, in data set [3], the “Tap. dens. (dt)” value was found to be 0.74 g/mL and the “db*(1/db − 1/dt)*100%” value came out at 20%.

The values are drawn from patent publication US7534781B2 (DSM IP Assets B.V., priority 2003, dated 2009).
